Data: EP2305660A1, “New thiadiazole derivatives” (Almirall, S.A., priority 2009, dated 2011)
Counter-ions that a name gives are not always drawn.

Biological target: S1P1 (Homo sapiens, UniProt P21453)
Assay: 35S-GTPyS binding assay (membranes)
Assay type: biochemical
Details: compound 0.1nM-10µM, 0.1nM 35S-GTPyS, 10µM S1P as 100% maximum efficacy, 90 min at room temperature
Procedure: The effect of the compounds was measured using a 35S-GTPyS binding assay. Briefly, membranes were incubated in a buffer containing 20 mM HEPES pH 7.4, 100 mM NaCl, 10 mM MgCl2, 10µM GDP, 50µg/ml saponin and 0.2% fatty acid-free BSA at various concentrations (0.1nM-10µM) and 0.1nM 35S-GTPyS. 10µM S1P was used as 100% maximum efficacy. The assay was incubated for 90 min at room temperature with gentle mixing, and terminated by filtrating the reaction mixture through GF/C filter plates using the Manifold Filtration System. The filters were immediately washed with sodium phosphate pH 7.4 buffer. After drying the filter plates scintillant liquid were added to each well and 35S-GTPyS binding was measured on a Trilux Scintillation Counter.

Chain of S1P1 (P21453 whole entry, species assumed): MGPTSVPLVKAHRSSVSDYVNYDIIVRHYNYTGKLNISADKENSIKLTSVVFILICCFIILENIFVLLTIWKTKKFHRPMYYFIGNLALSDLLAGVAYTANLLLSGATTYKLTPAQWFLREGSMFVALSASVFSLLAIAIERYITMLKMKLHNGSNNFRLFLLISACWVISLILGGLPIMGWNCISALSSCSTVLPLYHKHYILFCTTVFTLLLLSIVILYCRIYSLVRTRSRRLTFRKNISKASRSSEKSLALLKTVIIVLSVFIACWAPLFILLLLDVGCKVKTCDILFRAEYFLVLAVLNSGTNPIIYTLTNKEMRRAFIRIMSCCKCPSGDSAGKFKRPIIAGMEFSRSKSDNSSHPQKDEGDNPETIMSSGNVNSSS

Row | Compound | EC50 [nM]
1 | CCCCN(C(=O)Nc1ccccc1)c1nnc(-c2ccc(CN3CC(C(=O)O)C3)cc2)s1 [Example 40, 1-(4-{5-[(anilinocarbonyl)(butyl)amino]-1,3,4-thiadiazol-2-yl}benzyl)azetidine-3-carboxylic acid] | 70
2 | CCCCN(C(=O)c1ccccc1F)c1nnc(-c2cc(C)c(OCCN(C)CCO)c(C)c2)s1 [Example 57, N-butyl-2-fluoro-N-[5-(4-{2-[(2-hydroxyethyl)(methyl)amino]ethoxy}-3,5-dimethylphenyl)-1,3,4-thiadiazol-2-yl]benzamide] | 8.5
3 | CCCCN(C(=O)c1ccccc1F)c1nnc(-c2cc(C)c(OCCN3CC(C(=O)O)C3)c(C)c2)s1 [Example 1, 1-[2-(4-{5-[Butyl(2-fluorobenzoyl)amino]-1,3,4-thiadiazol-2-yl}-2,6-dimethylphenoxy)ethyl]azetidine-3-carboxylic acid] | 2.5
4 | CCCCN(C(=O)c1ccccc1F)c1nnc(-c2cc(C)c(OCCNCCn3cncn3)c(C)c2)s1 [Example 31, N-butyl-N-{5-[3,5-dimethyl-4-(2-{[2-(1H-1,2,4-triazol-1-yl)ethyl]amino}ethoxy)-phenyl]-1,3,4-thiadiazol-2-yl}-2-fluorobenzamide] | 4.1
5 | Cc1cc(-c2nnc(N(CC3CC3)C(=O)c3ccccc3Cl)s2)cc(C)c1OCCN1CCC(CC(=O)O)CC1 [Example 23, {1-[2-(4-{5-[(2-chlorobenzoyl)(cyclopropylmethyl)amino]-1,3,4-thiadiazol-2-yl}-2,6-dimethylphenoxy)ethyl]piperidin-4-yl}acetic acid hydrochloride] | 4.1
6 | CCCCN(C(=O)c1ccccc1F)c1nnc(-c2ccc(CNCCO)cc2)s1 [Example 36, N-butyl-2-fluoro-N-[5-(4-{[(2-hydroxyethyl)amino]methyl}phenyl)-1,3,4-thiadiazol-2-yl]benzamide, formate salt] | 40
7 | CCCCN(C(=O)c1ccccc1F)c1nnc(-c2cc(C)c(OCCNCCc3nn[nH]n3)c(C)c2)s1 [Example 12, N-butyl-N-{5-[3,5-dimethyl-4-(2-{[2-(2H-tetrazol-5-yl)ethyl]amino}ethoxy)phenyl]-1,3,4-thiadiazol-2-yl}-2-fluorobenzamide] | 0.4
8 | CCCCN(C(=O)c1ccccc1F)c1nnc(-c2ccc(CN3CC(c4nnn[nH]4)C3)cc2)s1 [Example 30, N-butyl-2-fluoro-N-[5-(4-{[3-(1H-tetrazol-5-yl)azetidin-1-yl]methyl}phenyl)-1,3,4-thiadiazol-2-yl]benzamide] | 2.3
